According to US11478476B2 (CONTERA PHARMA APS, priority 2014, dated 2022):

Assays:
[1] = biological target: T1, human recombinant 5-HT1A receptors (Homo sapiens, UniProt P08908); settings: cited from earlier work; for Ki: nM printed, table head has no unit
T1 sequence (P08908 1-422): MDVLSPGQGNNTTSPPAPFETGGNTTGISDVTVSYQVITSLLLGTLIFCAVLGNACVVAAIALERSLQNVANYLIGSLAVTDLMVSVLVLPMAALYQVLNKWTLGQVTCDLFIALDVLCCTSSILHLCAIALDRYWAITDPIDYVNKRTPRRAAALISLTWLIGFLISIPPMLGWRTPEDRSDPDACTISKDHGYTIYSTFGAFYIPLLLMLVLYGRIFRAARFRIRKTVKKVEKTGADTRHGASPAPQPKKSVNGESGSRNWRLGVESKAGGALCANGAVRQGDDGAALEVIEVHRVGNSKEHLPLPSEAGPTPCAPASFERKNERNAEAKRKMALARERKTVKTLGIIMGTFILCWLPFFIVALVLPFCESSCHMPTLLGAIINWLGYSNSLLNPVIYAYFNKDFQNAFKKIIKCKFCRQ

[2] = cited from earlier work
[3] = biological target: T2, human recombinant dopamine D2 receptor (Homo sapiens, UniProt P14416); settings: read-out: D2 affinity Ki ± SEM; cited from earlier work
T2 sequence (P14416 whole entry): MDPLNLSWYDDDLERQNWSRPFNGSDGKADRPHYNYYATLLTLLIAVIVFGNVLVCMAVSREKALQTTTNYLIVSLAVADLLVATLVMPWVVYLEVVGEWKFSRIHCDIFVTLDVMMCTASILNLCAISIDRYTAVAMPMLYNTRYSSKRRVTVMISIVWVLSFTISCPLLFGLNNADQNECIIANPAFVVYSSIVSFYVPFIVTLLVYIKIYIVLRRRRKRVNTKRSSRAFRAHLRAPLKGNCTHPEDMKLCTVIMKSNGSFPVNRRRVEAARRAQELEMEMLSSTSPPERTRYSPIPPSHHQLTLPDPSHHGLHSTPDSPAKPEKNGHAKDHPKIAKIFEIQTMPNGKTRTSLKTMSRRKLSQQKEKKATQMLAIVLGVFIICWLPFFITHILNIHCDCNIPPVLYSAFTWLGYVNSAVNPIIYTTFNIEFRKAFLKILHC

[4] = biological target: T3, human recombinant dopamine D3 receptor (Homo sapiens, UniProt P35462); settings: read-out: D3 affinity Ki ± SEM; cited from earlier work
T3 sequence (P35462 whole entry): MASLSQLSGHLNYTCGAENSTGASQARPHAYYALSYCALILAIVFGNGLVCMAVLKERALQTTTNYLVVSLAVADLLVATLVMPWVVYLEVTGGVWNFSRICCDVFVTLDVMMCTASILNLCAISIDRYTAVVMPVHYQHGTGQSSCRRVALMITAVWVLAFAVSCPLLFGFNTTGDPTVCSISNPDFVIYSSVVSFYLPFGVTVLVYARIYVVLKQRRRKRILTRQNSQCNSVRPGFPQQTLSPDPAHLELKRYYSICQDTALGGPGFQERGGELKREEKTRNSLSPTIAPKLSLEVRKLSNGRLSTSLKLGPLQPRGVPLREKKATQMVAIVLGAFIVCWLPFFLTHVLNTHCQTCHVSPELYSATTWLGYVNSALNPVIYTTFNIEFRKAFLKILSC

[5] = biological target: T4, human recombinant dopamine D4 receptor (Homo sapiens, UniProt P21917); settings: read-out: D4 affinity Ki ± SEM; cited from earlier work
T4 sequence (P21917 1-419): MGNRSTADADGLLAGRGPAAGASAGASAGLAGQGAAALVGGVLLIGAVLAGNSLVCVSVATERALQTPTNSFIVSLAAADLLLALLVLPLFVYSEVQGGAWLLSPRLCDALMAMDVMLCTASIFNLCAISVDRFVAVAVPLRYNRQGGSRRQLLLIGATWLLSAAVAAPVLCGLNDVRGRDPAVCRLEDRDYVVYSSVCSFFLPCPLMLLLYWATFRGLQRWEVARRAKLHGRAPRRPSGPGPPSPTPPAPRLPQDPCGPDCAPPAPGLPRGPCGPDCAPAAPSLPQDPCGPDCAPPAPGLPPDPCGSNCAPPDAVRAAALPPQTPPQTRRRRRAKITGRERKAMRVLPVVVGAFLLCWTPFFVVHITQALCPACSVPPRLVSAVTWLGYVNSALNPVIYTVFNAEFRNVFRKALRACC

[6] = biological target: T2, human recombinant dopamine D2 receptor; settings: saturating concentrations of dopamine; read-out: D2 efficacy IC50 ± SEM; cited from earlier work
[7] = biological target: T3, human recombinant dopamine D3 receptor; settings: saturating concentrations of dopamine; read-out: D3 efficacy IC50 ± SEM; cited from earlier work
[8] = biological target: T4, human recombinant dopamine D4 receptor; settings: saturating concentrations of dopamine; read-out: D4 efficacy IC50 ± SEM; cited from earlier work
[9] = system: L-DOPA induced dyskinesia (LID) model rats; assay: L-DOPA induced AIMs in 6-OHDA lesioned LID model rats; format: in vivo, rat
Excerpt: Animals: 80 experimentally-naïve, male, 9 weeks old Sprague-Dawley rats at body weight of 200 to 250 g arrive at the laboratory at least 1 week prior to behavioural testing. Rats were housed in groups of n=2/cage. Animals had ad libitum access to standard rodent chow and water. Animal housing and testing rooms were maintained under controlled environmental conditions and were within close proximity of each other. Animal housing rooms were on a 12-hour light-dark cycle with lights on at 6:00 AM and maintained at 70° F./21° C. (range: 68-72° F./20-22° C.) with a humidity range of 20-40%. Testing rooms were maintained at 68-72° F. with a humidity range of 20-40%. DA (dopamine)-denervating lesions were performed by unilateral injection of 6-OHDA in the ascending nigrostriatal pathway. Rats were anesthetized with pentobarbital sodium 40 mg/kg (i.p.) and positioned in a stereotactic frame. 6-OHDA was injected into the right ascending DA bundle at the following coordinates relative to bregma and dural surface: A (anterior-posterior), L (lateral), V (dorsoventral): A −1.8, L −2.0, V −8.6, tooth bar 0.0.
The neurotoxin injections were performed at a rate of 1 ul/min, and the injection cannula is left in place for an additional 2-3 min thereafter. Two weeks after surgery, contralateral full body turns were recorded over 30 min, following s.c. injection of 0.5 mg/kg of apomorphine sulfate. The animals were placed in plastic Perspex bowls (30 cm in diameter) and the rotational behavior (360° turns) is recorded by an automated rotometer for […] after the s.c. injection of 0.5 mg/kg of apomorphine sulfate. Apomorphine (0.5 mg/kg, s.c.) induced contralateral rotation in unilateral 6-OHDA lesioned rats. 73 rats with rotations ≥180/30 min, indicating >90% DA lesion in nigrostriatal pathway, were chosen as the PD model rats for chronic L-DOPA treatment.
Starting one day after the apomorphine-induced rotation test, 6-OHDA-lesioned rats were treated with daily L-DOPA (Sigma-Aldrich, Germany) (8 mg/kg plus benserazide 15 mg/kg, s.c.) for 21 days. Rats were placed individually in transparent plastic cages without bedding material and scored every 20 min following the injection of L-DOPA for the entire time course of dyskinesias (120 min). The AIMs were classified into four subtypes according to their topographic distributions such as Locomotive, Forelimb, Axial and Orolingual behaviors. The severity of each AIM subtype was assessed by using scores from 0 to 4 (1: occasional, i.e. present less than 50% of the time; 2: frequent, i.e. present more than 50% of the time; 3: continuous, but interrupted by strong sensory stimuli; 4: continuous, not interrupted by strong sensory stimuli). In this study, rats with an AIMs≥28 were considered highly dyskinetic, while rats with an AIMs<28 either low or none-dyskinetic.
After chronic L-DOPA treatment on PD rats for 21 days, 42 LID model rats (348 g˜501 g, 15 weeks old) were successfully created with the criteria of total AIM scores (Lo+Li+AX+OI)≥28 points.
AIMs ratings were performed by an investigator who was kept unaware of the pharmacological treatment administered to each rat (experimentally blinded). In order to quantify the severity of the AIMs, rats were observed individually in their standard cages every 20th minute at 20-180 min after an injection of I-DOPA. The AIM's were classified into four subtypes:
Each of the four subtypes are scored on a severity scale from 0 to 4, where 0=absent, 1=present during less than half of the observation time, 2=present for more than half of the observation time, 3=present all the time but suppressible by external stimuli, and 4=present all the time and not suppressible by external stimuli. Axial, limb and orolingual AIMs are found to be modulated in a similar way by all the tested substances.
Rats were tested for AIMs using the sum of locomotive (LO) oraxial (AX), limb (LI), and orolingual (OL) AIM scores per testing session for statistical analyses. […]

[10] = oral administration of buspirone, human volunteers; analyte = label (6-OH-Busp: total, both enantiomers); cited from earlier work
[11] = after administration of radiolabeled buspirone; cited from earlier work
dopamine D3 receptors = settings: oral buspirone at therapeutically relevant doses; cited from earlier work
D2 receptors = settings: oral buspirone; cited from earlier work
[12] = system: Parkinson's disease patients; settings: cited from earlier work
PD model rats = assay: Stepping test (adjusting steps) in PD model rats; format: in vivo, rat; settings: 10 mg/kg, sc; PD model rats
Experimental: The stepping test (Schallert et al., 1992) was performed as described by Kirik et al., 2001 with little modifications. Briefly, the rat was held by the experimenter fixing its hindlimbs with one hand and the forelimb not to be monitored with the other, while the unrestrained forepaw was touching the table. The number of adjusting steps was counted, while the rat was moved sideways along the table surface (90 cm in 5 s), in the forehand and backhand direction, for both forelimbs, and the average of the steps in the two directions is considered.
30 male PD model rats were used for adjusting steps test with the following groups: • 1. Vehicle 1+Vehicle 2 (n=7) • 2. Vehicle 1+L-DOPA (10 mg/kg, sc) (n=7) • 3. 6-OH-Busp (3 mg/kg, sc)+Vehicle 2 (n=8) • 4. 6-OH-Busp (3 mg/kg, sc)+L-DOPA (10 mg/kg, sc)
The PD rats were handled for 3 consecutive days. Vehicle 1 or 6-OH-Busp will s.c. dosed 61 min before adjusting steps test. Vehicle 2 or L-DOPA/Benserazide dosed 60 min before adjusting steps test. On testing day, the rats were held by both hind limbs and the untested forepaw. The test forepaw was placed on a flat surface and dragged in the forehand direction for 90 cm distance over 5 s. The number of adjusting steps was counted for both paws in the backhand and forehand directions of movement. […] Data were analyzed and graphed by Graph Pad Prism 6.

c1cnc(N2CCNCC2)nc1 [1-PP, 1-(2-pyrimidinyl)-piperazine]
IC50 [1]: > 1 µM
exposure (area under the concentration-time profile) of metabolite relative to parent compound ([2]; oral dosing of buspirone in rats): 49 fold

O=C1CC2(CCC(O)C2)CC(=O)N1CCCCN1CCN(c2ncccn2)CC1 (stereo not drawn) [3-OH-Busp]
IC50 [1]: 0.652 µM
Ki [1]: 326 nM

O=C1CC2(CCCC2)CC(=O)N1CCCCN1CCN(c2ncc(O)cn2)CC1 [5-OH-Busp]
IC50 [1]: 0.928 µM
Ki [1]: 464 nM
Ki [3]: 4.01 ± 0.792 µM
Ki [4]: 0.261 ± 0.046 µM
Ki [5]: 0.107 ± 0.0448 µM
IC50 [6]: 2.6 ± 1.3 µM
IC50 [7]: 0.93 ± 0.46 µM
IC50 [8]: 1.4 ± 0.82 µM

O=C1CC2(CCCC2)CC(=O)N1CCCCN1CCN(c2ncccn2)CC1 [Buspirone, 8-[4-(4-pyrimidin-2-ylpiperazin-1-yl)butyl]-8-azaspiro[4.5]decane-7,9-dione, reference compound]
total AIMs of LID rats at time points ([9]; Example XII, 1 mg/kg s.c., 50, 70, 90, 110, 130, 150, 170 and 190 min, vs vehicle): significantly attenuated
AUC of total AIMs from 10 min to 190 min ([9]; Example XII, buspirone 1 mg/kg s.c., 6-OH-Busp 0.3, 1 and 3 mg/kg s.c., vs vehicle): decreased
Ki [4]: 0.098 ± 0.016 µM
Ki [5]: 0.0292 ± 0.0113 µM
IC50 [7]: 0.44 ± 0.18 µM
IC50 [8]: 0.35 ± 0.06 µM
AUC0-INF [10]: 3.93 ngxh/ml
Cmax [10]: 1.39 ng/mL
unchanged buspirone as share of total radioactivity in human plasma [11]: less than 2%
plasma half-life ([2]; rats): 54 ± 24 min
in vivo blockade of dopamine D3 receptors (PET) (dopamine D3 receptors): blocks
in vivo blockade of D2 receptors (PET) (D2 receptors): did not cause blockade
disability ratings ([12]; 100 mg/day): significant worsening
dyskinesia ([12]; 100 mg/day): reduced
effects on Parkinson's disease or dyskinesia ([12]; 10-60 mg/day): did not have any effects

CN1CC(=O)N=C1NC(=O)Nc1cccc(Cl)c1 [Fenobam, 1-(3-chlorophenyl)-3-(3-methyl-5-oxo-4H-imidazol-2-yl)urea, reference compound]
AIMs of LID rats at any time points ([9]; Example XIV, 30 mg/kg, s.c. as printed): did not have significant effects

N[C@@H](Cc1ccc(O)c(O)c1)C(=O)O [L-DOPA, 3,4-dihydroxyphenylalanine, reference compound]
number of adjusting steps (PD model rats): increased

CN(C)CCc1c[nH]c2ccc(C[C@H]3COC(=O)N3)cc12 [Zolmitriptan, (S)-4-({3-[2-(dimethylamino)ethyl]-1H-indol-5-yl}methyl)-1,3-oxazolidin-2-one, reference compound]
AIMs at any time points ([9]; Example XIII, 10 mg/kg s.c.): did not have any effects
